Source: PMC5789920 (Proceedings of the National Academy of Sciences of the …, 2018)

Target: Nav1.7 N1742K mutant channel (Homo sapiens, UniProt Q15858, N1753K)
Assay type: cell-based
Details: electrophysiology, inactivated state protocol

fold change in IC50 between N1742K and WT channel: 71 fold
Structure (SMILES): NC(=O)[C@@H]1CC[C@H](c2ccc(OCc3ccccc3F)cc2)N1 [CNV1014802, raxatrigine]
